These results are taken from ChEMBL document CHEMBL4602660, “Kinase-Inhibitory Nucleoside Derivatives from the Pacific Bryozoan Nelliella nelliiformis” (J Nat Prod, 2020).

Experiment [1] deals with T1, Ribosomal protein S6 kinase alpha-3 (Homo sapiens, UniProt P51812). As to the kind of experiment: Inhibition of His-tagged recombinant human RSK2 expressed in baculovirus expression system after 1 hr by Z'-LYTE assay.
In experiment [2] the target is Maternal embryonic leucine zipper kinase (Homo sapiens) (UniProt Q14680). As to the kind of experiment: Inhibition of GST tagged human MELK expressed in baculovirus expression system at 10 uM after 1 hr by Z'-LYTE assay relative to control.
For experiment [3], the target named is MAP kinase-activated protein kinase 2 (Homo sapiens) (UniProt P49137). Nature of the experiment: Inhibition of His-tagged human MAPKAPK2 expressed in Escherichia coli at 10 uM after 1 hr by Z'-LYTE assay relative to control.
Experiment [4] concerns the target T1, Ribosomal protein S6 kinase alpha-3. As to the kind of experiment: Inhibition of His-tagged recombinant human RSK2 expressed in baculovirus expression system at 10 uM after 1 hr by Z'-LYTE assay relative to control.
A further experiment has as its system Staphylococcus aureus. Nature of the experiment: Antibacterial activity against Staphylococcus aureus up to 100 ug/ml. The experiment is classed as functional, organism-based.
Experiment [5] concerns the target T2, Mitogen-activated protein kinase 14 (Homo sapiens, UniProt Q16539). As to the kind of experiment: Inhibition of human MAPK14 expressed in Escherichia coli at 10 uM after 1 hr by Z'-LYTE assay relative to control.
For experiment [6], the target named is MAP kinase-activated protein kinase 3 (Homo sapiens) (UniProt Q16644). As to the kind of experiment: Inhibition of His-tagged human MAPKAPK3 expressed in baculovirus expression system at 10 uM after 1 hr by Z'-LYTE assay relative to control.
In another experiment the test system is Saccharomyces cerevisiae. Nature of the experiment: Antifungal activity against Saccharomyces cerevisiae. The experiment is classed as functional, organism-based.
The target of experiment [7] is T3, Glycogen synthase kinase-3 alpha (Homo sapiens, UniProt P49840). Nature of the experiment: Inhibition of N-Terminal GST tagged human GSK3A expressed in baculovirus expression system after 1 hr by Z'-LYTE assay.
Target sequence in this assay (P49840 whole entry): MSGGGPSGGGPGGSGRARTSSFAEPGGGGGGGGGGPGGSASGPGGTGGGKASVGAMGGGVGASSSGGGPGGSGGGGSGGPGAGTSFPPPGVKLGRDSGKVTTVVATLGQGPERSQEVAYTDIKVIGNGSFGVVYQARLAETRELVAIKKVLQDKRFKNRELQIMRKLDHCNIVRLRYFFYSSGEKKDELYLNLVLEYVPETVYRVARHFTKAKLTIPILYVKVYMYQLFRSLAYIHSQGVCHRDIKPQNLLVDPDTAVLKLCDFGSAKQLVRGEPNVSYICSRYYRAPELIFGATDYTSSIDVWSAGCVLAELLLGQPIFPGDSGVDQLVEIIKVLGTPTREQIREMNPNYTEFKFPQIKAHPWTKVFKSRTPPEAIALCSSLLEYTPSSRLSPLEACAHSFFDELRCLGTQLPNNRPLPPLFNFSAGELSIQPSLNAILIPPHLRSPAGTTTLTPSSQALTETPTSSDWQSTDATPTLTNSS
The target of experiment [8] is T2, Mitogen-activated protein kinase 14. Nature of the experiment: Inhibition of human MAPK14 expressed in Escherichia coli after 1 hr by Z'-LYTE assay.
In another experiment the test system is HL-60. Nature of the experiment: Cytotoxicity against human HL60 cells up to 10 uM. The experiment is classed as functional, cell-based.
Experiment [9] concerns the target T3, Glycogen synthase kinase-3 alpha. Nature of the experiment: Inhibition of N-Terminal GST tagged human GSK3A expressed in baculovirus expression system at 10 uM after 1 hr by Z'-LYTE assay relative to control.
Target sequence in this assay (P49840 2-483 limits assumed): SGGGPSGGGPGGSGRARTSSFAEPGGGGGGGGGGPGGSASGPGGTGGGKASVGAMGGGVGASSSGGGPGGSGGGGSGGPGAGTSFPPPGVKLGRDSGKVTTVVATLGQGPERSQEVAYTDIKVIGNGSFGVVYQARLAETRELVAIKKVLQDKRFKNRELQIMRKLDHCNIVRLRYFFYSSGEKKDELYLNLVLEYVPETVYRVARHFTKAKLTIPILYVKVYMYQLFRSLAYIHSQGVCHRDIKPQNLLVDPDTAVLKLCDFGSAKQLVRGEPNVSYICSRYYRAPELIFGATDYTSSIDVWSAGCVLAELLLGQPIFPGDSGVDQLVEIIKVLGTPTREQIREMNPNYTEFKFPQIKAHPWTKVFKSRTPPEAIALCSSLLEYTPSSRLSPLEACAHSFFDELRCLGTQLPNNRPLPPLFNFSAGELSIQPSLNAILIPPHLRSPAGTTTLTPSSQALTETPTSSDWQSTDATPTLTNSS
Experiment [10] has as its target Glycogen synthase kinase-3 beta (Homo sapiens) (UniProt P49841). Nature of the experiment: Inhibition of N-Terminal His tagged human GSK3B expressed in baculovirus expression system at 10 uM after 1 hr by Z'-LYTE assay relative to control.

Structures are written as SMILES. Activity calls are given as the source filed them. The calls are words filed in the database; no cut-off is given here.

T2 sequence (Q16539 whole entry): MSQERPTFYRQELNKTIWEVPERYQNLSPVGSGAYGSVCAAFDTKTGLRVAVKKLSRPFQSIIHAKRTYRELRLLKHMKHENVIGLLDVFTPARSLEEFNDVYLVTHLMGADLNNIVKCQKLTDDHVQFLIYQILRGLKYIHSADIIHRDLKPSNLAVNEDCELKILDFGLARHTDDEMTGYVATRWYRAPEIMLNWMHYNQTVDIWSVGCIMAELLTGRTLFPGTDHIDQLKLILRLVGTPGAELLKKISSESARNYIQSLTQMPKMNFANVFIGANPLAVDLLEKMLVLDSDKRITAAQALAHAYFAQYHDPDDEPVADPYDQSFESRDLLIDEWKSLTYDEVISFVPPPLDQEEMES
Chain of MAP kinase-activated protein kinase 2 (Homo sapiens) (P49137 whole entry, looked up): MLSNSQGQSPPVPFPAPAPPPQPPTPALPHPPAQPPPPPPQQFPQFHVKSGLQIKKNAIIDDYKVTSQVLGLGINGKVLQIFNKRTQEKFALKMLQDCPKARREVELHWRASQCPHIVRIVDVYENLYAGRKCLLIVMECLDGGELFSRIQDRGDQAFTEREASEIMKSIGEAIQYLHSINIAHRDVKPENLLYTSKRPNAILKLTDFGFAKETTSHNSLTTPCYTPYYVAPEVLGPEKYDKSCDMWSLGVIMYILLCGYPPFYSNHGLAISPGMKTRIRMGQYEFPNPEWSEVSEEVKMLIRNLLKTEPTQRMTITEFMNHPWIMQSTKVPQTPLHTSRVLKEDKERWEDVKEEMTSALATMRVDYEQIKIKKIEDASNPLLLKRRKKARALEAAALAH
Chain of Glycogen synthase kinase-3 beta (Homo sapiens) (P49841 whole entry, looked up): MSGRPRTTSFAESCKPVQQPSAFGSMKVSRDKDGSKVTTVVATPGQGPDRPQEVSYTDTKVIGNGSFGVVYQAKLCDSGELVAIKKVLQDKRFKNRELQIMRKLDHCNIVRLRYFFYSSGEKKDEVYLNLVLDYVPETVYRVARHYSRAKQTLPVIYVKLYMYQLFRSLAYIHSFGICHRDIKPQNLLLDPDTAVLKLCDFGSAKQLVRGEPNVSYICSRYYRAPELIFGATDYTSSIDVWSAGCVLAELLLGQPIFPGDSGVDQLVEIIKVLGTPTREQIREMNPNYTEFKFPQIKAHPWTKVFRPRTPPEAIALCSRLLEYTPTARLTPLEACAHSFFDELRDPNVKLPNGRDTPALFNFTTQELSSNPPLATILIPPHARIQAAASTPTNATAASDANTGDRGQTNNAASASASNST
T1 sequence (P51812 whole entry): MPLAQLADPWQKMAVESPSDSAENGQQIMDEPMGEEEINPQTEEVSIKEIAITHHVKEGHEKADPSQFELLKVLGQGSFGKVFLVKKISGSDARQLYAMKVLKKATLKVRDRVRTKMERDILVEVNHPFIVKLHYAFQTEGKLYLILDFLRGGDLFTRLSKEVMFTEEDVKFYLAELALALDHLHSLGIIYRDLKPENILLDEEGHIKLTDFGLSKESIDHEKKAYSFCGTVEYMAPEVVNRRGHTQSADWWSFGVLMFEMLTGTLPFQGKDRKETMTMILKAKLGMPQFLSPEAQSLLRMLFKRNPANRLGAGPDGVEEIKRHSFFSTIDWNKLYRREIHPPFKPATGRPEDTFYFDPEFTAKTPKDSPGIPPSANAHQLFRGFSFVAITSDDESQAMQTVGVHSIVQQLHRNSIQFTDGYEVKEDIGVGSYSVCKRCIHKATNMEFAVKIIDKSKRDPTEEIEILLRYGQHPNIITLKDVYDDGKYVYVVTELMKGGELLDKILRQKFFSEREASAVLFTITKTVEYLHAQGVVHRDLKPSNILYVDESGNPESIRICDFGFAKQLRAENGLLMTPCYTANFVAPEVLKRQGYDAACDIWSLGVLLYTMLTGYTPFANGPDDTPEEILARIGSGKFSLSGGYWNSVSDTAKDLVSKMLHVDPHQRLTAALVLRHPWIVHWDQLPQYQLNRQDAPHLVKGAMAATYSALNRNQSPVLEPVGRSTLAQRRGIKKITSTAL
Chain of Maternal embryonic leucine zipper kinase (Homo sapiens) (Q14680 whole entry, looked up): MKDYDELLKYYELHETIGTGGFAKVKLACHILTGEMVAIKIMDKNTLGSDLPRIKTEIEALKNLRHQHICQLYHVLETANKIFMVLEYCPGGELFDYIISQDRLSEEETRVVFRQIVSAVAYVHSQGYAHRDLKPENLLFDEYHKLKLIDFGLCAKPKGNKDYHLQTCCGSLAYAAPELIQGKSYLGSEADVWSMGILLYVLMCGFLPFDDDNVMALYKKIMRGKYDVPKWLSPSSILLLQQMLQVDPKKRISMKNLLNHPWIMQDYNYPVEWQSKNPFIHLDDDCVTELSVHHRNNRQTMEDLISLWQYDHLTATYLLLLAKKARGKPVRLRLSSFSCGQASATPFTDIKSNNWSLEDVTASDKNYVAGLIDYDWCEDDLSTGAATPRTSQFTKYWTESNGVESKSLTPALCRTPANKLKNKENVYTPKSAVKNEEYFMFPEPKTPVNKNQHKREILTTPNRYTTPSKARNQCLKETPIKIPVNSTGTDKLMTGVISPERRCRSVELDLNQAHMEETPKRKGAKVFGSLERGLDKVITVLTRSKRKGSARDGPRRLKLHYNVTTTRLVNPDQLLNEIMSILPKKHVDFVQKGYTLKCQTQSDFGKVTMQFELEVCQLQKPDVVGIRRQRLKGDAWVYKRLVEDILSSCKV
Chain of MAP kinase-activated protein kinase 3 (Homo sapiens) (Q16644 whole entry, looked up): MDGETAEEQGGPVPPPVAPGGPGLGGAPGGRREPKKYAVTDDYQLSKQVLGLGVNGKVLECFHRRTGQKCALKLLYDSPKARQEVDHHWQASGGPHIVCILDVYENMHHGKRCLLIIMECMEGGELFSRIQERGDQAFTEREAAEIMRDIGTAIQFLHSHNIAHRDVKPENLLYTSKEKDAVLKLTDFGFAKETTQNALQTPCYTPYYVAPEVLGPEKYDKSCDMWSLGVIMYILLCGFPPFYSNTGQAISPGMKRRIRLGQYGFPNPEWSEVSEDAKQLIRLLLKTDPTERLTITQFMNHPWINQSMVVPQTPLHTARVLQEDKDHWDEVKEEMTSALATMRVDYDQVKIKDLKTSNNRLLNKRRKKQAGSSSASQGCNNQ

Consider `O=C(OC[C@H]1O[C@@H](n2cnc3c(=O)[nH]cnc32)[C@H](O)[C@@H]1O)c1cc[nH]c1`, for which the values for the half-maximal inhibitory concentration (IC50) in experiment [1], in [7] and in [8] were 640 nM, 610 nM and 870 nM, respectively. For the same molecule, the inhibition – broadly, the relative decrease from the control value, in per cent – in [2] was found to be 97%; in experiment [3], 89%; in [4], 95%; in [5], 95%; in experiment [6] it was 100%; in experiment [9], 100%. Besides, in experiment [10], the inhibition came to 99%. Also, the result with Staphylococcus aureus, in the experiment on Saccharomyces cerevisiae and in the experiment on HL-60 was inactive.
Consider `Nc1ncnc2c1ncn2[C@@H]1O[C@H](COC(=O)c2cc[nH]c2)[C@@H](O)[C@H]1O`, for which the IC50 (in general, the concentration at which inhibition is half-maximal) in experiment [1] came to 970 nM; in [7] it was 1000 nM; in experiment [8], 1710 nM. The inhibition in experiment [2] was determined as 98%; in experiment [3] it was 87%; in experiment [4], 94%; in experiment [5], 95%; in experiment [6], 98%; in experiment [9] it was 101%. Further, the inhibition in experiment [10] is 98%. Besides, the result in the experiment on Staphylococcus aureus, in the experiment with Saccharomyces cerevisiae and in the experiment with HL-60 was inactive.
As for `O=C(OC[C@H]1O[C@@H](n2cnc3c(=O)[nH]cnc32)[C@H](O)[C@@H]1O)c1ccc[nH]1`, the results for the IC50 in experiment [1], in experiment [7] and in experiment [8] were 230 nM, 1110 nM and 1320 nM, respectively. For the same molecule, the inhibition came out at 97% in experiment [2]; 42% in experiment [3]; 102% in [4]; 95% in experiment [5]; 83% in experiment [6]; 94% in experiment [9]. Further, the inhibition in experiment [10] turned out to be 94%. The result with Staphylococcus aureus, in the experiment with Saccharomyces cerevisiae and in the experiment on HL-60 was inactive.
Consider `Nc1ncnc2c1ncn2[C@@H]1O[C@H](COC(=O)c2ccc[nH]2)[C@@H](O)[C@H]1O`, for which the IC50 stood at 800 nM in [1], 890 nM in experiment [7] and 1000 nM in experiment [8]. In addition, the inhibition worked out at 95% in [2]; 95% in experiment [3]; 96% in [4]; 95% in experiment [5]; 98% in experiment [6]; 99% in [9]. In addition, in experiment [10], the inhibition was found to be 100%. The result in the experiment on Staphylococcus aureus, in the experiment on Saccharomyces cerevisiae and in the experiment on HL-60 was inactive.
`Nc1nc2c(ncn2[C@@H]2O[C@H](COC(=O)c3ccc[nH]3)[C@@H](O)[C@H]2O)c(=O)[nH]1`: the IC50 in experiment [1] was determined as 660 nM; in experiment [7], 710 nM; in [8], 950 nM. Also, the inhibition in experiment [2] stood at 96%; in experiment [3] it was 88%; in experiment [4], 96%; in [5], 93%; in experiment [6], 101%; in experiment [9], 98%. In addition, the inhibition in experiment [10] is 98%. Besides, the outcome in the experiment on Staphylococcus aureus, with Saccharomyces cerevisiae and in the experiment with HL-60 was inactive.
With `Nc1nc2c(ncn2[C@@H]2O[C@H](COC(=O)c3cc[nH]c3)[C@@H](O)[C@H]2O)c(=O)[nH]1`, the results for the IC50 in experiment [1], in [7] and in experiment [8] were 680 nM, 670 nM and 990 nM, respectively. In addition, the inhibition in experiment [2] was 87%; in [3], 82%; in experiment [4] it was 93%; in experiment [5] it was 84%; in [6] it was 99%; in experiment [9] it was 93%. Also, the inhibition in experiment [10] is 96%. The result with Staphylococcus aureus, in the experiment with Saccharomyces cerevisiae and with HL-60 was inactive.
